Values of other authors as cited in US20100035755A1, “METHOD OF CONTROLLING WEEDS IN A TURF GRASS BY USING SULFONYLUREA COMPOUNDS” (Moghu Research Center Ltd., priority 2008, published 2010).
Like-named read-outs stand apart in the source and are kept apart here.

Key:
cool season turf grass = conditions: cited from earlier work
warm season turf grass = conditions: cited from earlier work
Poa annua = conditions: background statement on existing herbicides; cited from earlier work
[1] = background statement, creeping bentgrass, Kentucky bluegrass
[2] = background statement, zoysiagrass, Burmudagrass

Row | SMILES | safety to cool season turf grass (cool season turf grass; [1]) | safety to warm season turf grass (warm season turf grass; [2]) | controlling Poa annua (Poa annua) | safety to cool season turf grass (cool season turf grass; in vivo) | safety to warm season turf grass (warm season turf grass; in vivo)
1 | COc1cc(OC)nc(NC(=O)NS(=O)(=O)c2ncccc2OCC(F)(F)F)n1 [R. 2, Trifloxysulfuron] | no safety | have a safety | – | – | –
2 | COc1cc(OC)nc(NC(=O)NS(=O)(=O)Nc2ccccc2C(=O)C2CC2)n1 [R. 4, Cyclosulfamuron] | – | – | ineffective | safe | safe
3 | COC(=O)c1c(Cl)nn(C)c1S(=O)(=O)NC(=O)Nc1nc(OC)cc(OC)n1 [R. 3, Halosulfuron-methyl] | safe | safe | ineffective | – | –
